In the oligonucleotide strings, read from the 5' end, every base follows the letter of its sugar. An asterisk marks phosphorothioate; unmarked linkages are phosphodiester. Other units and linkages are bracketed, terminal groups are in braces. A string of capitals states the bases alone. e = 2'-O-(2-methoxyethyl) (MOE); [5mC] = 5-methylcytosine; d = 2'-deoxy (DNA)
tested on: mouse growth hormone receptor mRNA; assay: Inhibition of mouse growth hormone receptor mRNA levels in b.END cells, quantitative real-time PCR, incl. dose-response; type: cell-based; conditions: averages from three experiments
Description: The mouse brain endothelial cell line b.END was obtained from Dr. Werner Risau at the Max Plank Instititute (Bad Nauheim, Germany). b.END cells were routinely cultured in DMEM, high glucose (Gibco/Life Technologies, Gaithersburg, Md.) supplemented with 10% fetal calf serum (Gibco/Life Technologies, Gaithersburg, Md.). Cells were routinely passaged by trypsinization and dilution when they reached 90% confluence. Cells were seeded into 96-well plates (Falcon-Primaria #3872) at a density of 3000 cells/well for use in RT-PCR analysis.
When cells reached 65-75% confluency, they were treated with oligonucleotide. For cells grown in 96-well plates, wells were washed once with 100 μL OPTI-MEM™-1 reduced-serum medium (Invitrogen Corporation, Carlsbad, Calif.) and then treated with 130 μL of OPTI-MEM™-1 containing 3.75 μg/mL LIPOFECTIN™ (Invitrogen Corporation, Carlsbad, Calif.) and the desired concentration of oligonucleotide. Cells are treated and data are obtained in triplicate. After 4-7 hours of treatment at 37° C., the medium was replaced with fresh medium. Cells were harvested 16-24 hours after oligonucleotide treatment.
Total RNA was isolated using an RNEASY 96™ kit and buffers purchased from Qiagen Inc. (Valencia, Calif.) following the manufacturer's recommended procedures. Briefly, for cells grown on 96-well plates, growth medium was removed from the cells and each well was washed with 200 μL cold PBS. 150 μL Buffer RLT was added to each well and the plate vigorously agitated for 20 seconds. 150 μL of 70% ethanol was then added to each well and the contents mixed by pipetting three times up and down. The samples were then transferred to the RNEASY 96™ well plate attached to a QIAVAC™ manifold fitted with a waste collection tray and attached to a vacuum source. Vacuum was applied for 1 minute. 500 μL of Buffer RW1 was added to each well of the RNEASY 96™ plate and incubated for 15 minutes and the vacuum was again applied for 1 minute. An additional 500 μL of Buffer RW1 was added to each well of the RNEASY 96™ plate and the vacuum was applied for 2 minutes. 1 mL of Buffer RPE was then added to each well of the RNEASY 96™ plate and the vacuum applied for a period of 90 seconds. The Buffer RPE wash was then repeated and the vacuum was applied for an additional 3 minutes. The plate was then removed from the QIAVAC™ manifold and blotted dry on paper towels. The plate was then re-attached to the QIAVAC™ manifold fitted with a collection tube rack containing 1.2 mL collection tubes. RNA was then eluted by pipetting 140 μL of RNAse free water into each well, incubating 1 minute, and then applying the vacuum for 3 minutes.
Quantitation of growth hormone receptor mRNA levels was accomplished by real-time quantitative PCR using the ABI PRISM™ 7600, 7700, or 7900 Sequence Detection System (PE-Applied Biosystems, Foster City, Calif.) according to manufacturer's instructions. This is a closed-tube, non-gel-based, fluorescence detection system which allows high-throughput quantitation of polymerase chain reaction (PCR) products in real-time. As opposed to standard PCR in which amplification products are quantitated after the PCR is completed, products in real-time quantitative PCR are quantitated as they accumulate. This is accomplished by including in the PCR reaction an oligonucleotide probe that anneals specifically between the forward and reverse PCR primers, and contains two fluorescent dyes. A reporter dye (e.g., FAM or JOE, obtained from either PE-Applied Biosystems, Foster City, Calif., Operon Technologies Inc., Alameda, Calif. or Integrated DNA Technologies Inc., Coralville, Iowa) is attached to the 5′ end of the probe and a quencher dye (e.g., TAMRA, obtained from either PE-Applied Biosystems, Foster City, Calif., Operon Technologies Inc., Alameda, Calif. or Integrated DNA Technologies Inc., Coralville, Iowa) is attached to the 3′ end of the probe. […]

Substance	% INHIB of mouse growth hormone receptor mRNA levels [%]
227471 (antisense eA*eG*eG*e[5mC]*eA*d[5mC]*dA*dA*dG*dA*dG*dA*dT*d[5mC]*dA*eG*e[5mC]*eT*eT*e[5mC]) [compound 227471]	52
227472 (antisense eA*eG*eA*eG*e[5mC]*d[5mC]*dA*dA*dG*dG*dG*dA*dA*dG*d[5mC]*eA*eT*e[5mC]*eA*eT) [compound 227472]	42
227473 (antisense eA*eA*eG*eT*e[5mC]*dA*dA*dT*dG*dT*dT*dT*dG*d[5mC]*d[5mC]*eA*eG*eT*eG*eA) [compound 227473]	71
227474 (antisense eT*eG*eT*e[5mC]*eG*d[5mC]*dT*dT*dA*d[5mC]*dT*dT*dG*dG*dG*e[5mC]*eA*eT*eA*eA) [compound 227474]	68
227476 (antisense eG*eT*eA*eA*eT*dT*dT*dT*d[5mC]*dT*dT*dG*dG*d[5mC]*dA*eG*eG*eG*e[5mC]*eG) [compound 227476]	41
227477 (antisense e[5mC]*eA*e[5mC]*eT*eG*dT*dT*d[5mC]*dA*dT*dG*d[5mC]*dT*dG*dT*eA*eA*eT*eT*eT) [compound 227477]	61
227478 (antisense eT*eT*eT*eT*eT*dG*dG*d[5mC]*dA*dT*d[5mC]*dT*dG*dA*d[5mC]*eT*e[5mC]*eA*e[5mC]*eA) [compound 227478]	68
227479 (antisense eA*eT*eG*eT*e[5mC]*d[5mC]*dT*d[5mC]*dT*dT*dG*dG*dT*dT*dA*eA*eA*eG*e[5mC]*eT) [compound 227479]	59
227485 (antisense e[5mC]*eG*eT*eG*eG*dT*dG*dT*dA*dG*dT*d[5mC]*dT*dG*dG*eG*eA*e[5mC]*eA*eG) [compound 227485]	45
227486 (antisense e[5mC]*eG*eG*eT*eG*dT*dG*dA*dA*d[5mC]*d[5mC]*dG*dT*dG*dG*eT*eG*eT*eA*eG) [compound 227486]	39
227487 (antisense eT*e[5mC]*eA*eG*eG*d[5mC]*dA*dA*dA*dG*dG*d[5mC]*dA*dA*dA*eG*e[5mC]*eA*eG*eT) [compound 227487]	44
227491 (antisense eT*eA*eG*eG*eA*dA*dA*dG*dG*d[5mC]*dT*dA*d[5mC]*dT*dG*e[5mC]*eA*eT*eG*eA) [compound 227491]	65
227492 (antisense eT*eA*eA*eA*eA*d[5mC]*dA*dT*dA*dG*dT*dT*dT*dT*dG*eG*eT*eT*eT*eA) [compound 227492]	7
227493 (antisense eT*e[5mC]*e[5mC]*e[5mC]*eA*dA*d[5mC]*dA*d[5mC]*dA*dG*dA*dT*dT*dT*eA*eA*eA*eA*e[5mC]) [compound 227493]	51
227494 (antisense e[5mC]*eA*eA*eA*eA*dG*d[5mC]*d[5mC]*dA*d[5mC]*d[5mC]*dT*dG*dA*dT*eT*eG*eT*eT*eT) [compound 227494]	56
227495 (antisense eT*e[5mC]*e[5mC]*eT*eG*dA*dA*d[5mC]*dT*dG*d[5mC]*dA*dA*dA*dA*eG*e[5mC]*e[5mC]*eA*e[5mC]) [compound 227495]	47
227496 (antisense eG*e[5mC]*eA*eT*eT*d[5mC]*dA*dA*dT*dT*dT*d[5mC]*d[5mC]*dT*dG*eA*eA*e[5mC]*eT*eG) [compound 227496]	51
227497 (antisense eT*eA*eA*eA*eT*dG*dT*dT*dT*dT*dG*d[5mC]*dA*dT*dA*eT*e[5mC]*e[5mC]*eA*eA) [compound 227497]	77

Substance	% INHIB of mouse growth hormone receptor mRNA levels [%]
227498 (antisense eT*eT*eG*eT*eA*dA*dA*dA*dA*dT*d[5mC]*dT*dA*dA*d[5mC]*eT*eT*eG*eT*eT) [compound 227498]	49
227503 (antisense eT*eA*e[5mC]*e[5mC]*eT*dG*dA*dG*dA*d[5mC]*d[5mC]*d[5mC]*d[5mC]*dA*dG*eT*eT*e[5mC]*eA*eT) [compound 227503]	24
227504 (antisense eT*eA*e[5mC]*e[5mC]*eT*dG*dA*dG*dA*d[5mC]*d[5mC]*d[5mC]*d[5mC]*dG*d[5mC]*eG*e[5mC]*eA*eG*e[5mC]) [compound 227504]	34
227505 (antisense eT*eA*e[5mC]*e[5mC]*eT*dG*dA*dG*dA*d[5mC]*d[5mC]*d[5mC]*dA*d[5mC]*dA*eA*eG*e[5mC]*eG*eG) [compound 227505]	39
227506 (antisense e[5mC]*e[5mC]*eT*e[5mC]*e[5mC]*dA*dG*dT*dA*d[5mC]*d[5mC]*dT*d[5mC]*dG*dG*eA*eG*eT*eT*eT) [compound 227506]	69
227507 (antisense eG*eT*e[5mC]*e[5mC]*eT*dT*dG*d[5mC]*dT*d[5mC]*d[5mC]*dA*dG*dG*dT*eT*eA*eG*e[5mC]*eA) [compound 227507]	89
227508 (antisense eT*eT*e[5mC]*e[5mC]*eA*d[5mC]*dT*d[5mC]*dA*d[5mC]*d[5mC]*d[5mC]*d[5mC]*dA*dG*eT*eT*e[5mC]*eA*eT) [compound 227508]	51
227509 (antisense eG*e[5mC]*eA*eG*eT*dT*d[5mC]*dT*dA*dT*d[5mC]*dA*dG*dA*dA*e[5mC]*eT*eT*eT*eG) [compound 227509]	82
227510 (antisense e[5mC]*eT*e[5mC]*e[5mC]*eA*dG*dA*d[5mC]*dG*dT*dG*dA*d[5mC]*d[5mC]*d[5mC]*eG*eA*e[5mC]*eT*e[5mC]) [compound 227510]	64
227511 (antisense e[5mC]*e[5mC]*eA*e[5mC]*eG*d[5mC]*dA*d[5mC]*d[5mC]*d[5mC]*dA*d[5mC]*dA*dA*dG*e[5mC]*eG*eG*eA*eT) [compound 227511]	71
227512 (antisense eT*eA*eA*e[5mC]*e[5mC]*dT*dA*dT*dG*dG*dT*dG*dA*d[5mC]*dT*eA*eT*eG*eT*e[5mC]) [compound 227512]	36
227513 (antisense eT*eA*e[5mC]*e[5mC]*eT*dG*dA*dG*dA*d[5mC]*d[5mC]*dT*dG*d[5mC]*dA*eA*eG*eA*e[5mC]*eA) [compound 227513]	40
227514 (antisense eA*eT*eG*e[5mC]*eT*d[5mC]*dA*d[5mC]*dG*dT*d[5mC]*dA*dG*d[5mC]*dT*eA*eT*eT*eG*eG) [compound 227514]	43
227515 (antisense eA*eA*eA*eT*eT*d[5mC]*dT*dT*dA*d[5mC]*dT*dT*dG*dT*d[5mC]*e[5mC]*e[5mC]*e[5mC]*eA*eG) [compound 227515]	37
227516 (antisense eT*eT*eG*eG*e[5mC]*dT*dT*dT*d[5mC]*d[5mC]*d[5mC]*dT*dG*dG*dA*eG*eG*eT*eT*e[5mC]) [compound 227516]	57
227517 (antisense e[5mC]*eT*eT*e[5mC]*eA*d[5mC]*dT*dA*dA*d[5mC]*d[5mC]*dT*dT*dG*d[5mC]*eA*eG*e[5mC]*eT*eT) [compound 227517]	63
227518 (antisense e[5mC]*eA*e[5mC]*eG*eG*d[5mC]*dT*dT*dA*d[5mC]*d[5mC]*dT*dA*dT*dT*eT*e[5mC]*eG*eT*e[5mC]) [compound 227518]	6
